According to US20140018375A1, “BIOLOGICAL MARKERS PREDICTIVE OF ANTI-CANCER RESPONSE TO EPIDERMAL GROWTH FACTOR RECEPTOR KINASE INHIBITORS” (priority 2005, published 2014):
“Also recorded” adds a separate entry of the source. Read-outs that look alike come from different tables or passages of the source.

Key:
[1] = test system: H358; assay: Cell-Titer Glo cell viability assay, H358; format: cell-based, human
Procedure: (§1) On day 1, NSCLC cells were plated 3-5×10^4 cells/well in 96 well plates in their normal serum-containing media. […] Manufacturers instructions were followed for the assay. Experiments were conducted in triplicate to at least an n=3. Data was normalized as a percentage inhibition compared to DMSO only control wells and concentration-response analysis was performed using Prizm graphing software.
(§2) The concentration response curves were analyzed in two ways.

[2] = test system: H358 xenograft; assay: NSCLC xenograft tumor growth inhibition, H358; format: in vivo, mouse; settings: oral gavage once a day for 14 days
Procedure: (§3) Female CD-1 nu/nu mice (Charles River Laboratories) were implanted with harvested NSCLC tumor cells in a single subcutaneous site on the flank of the mice in the axillary region. Tumors were allowed to grow to 200±50 mm^3, at which time the animals were sorted into treatment groups of 8 animals per group based on weight (±1 g body weight) and tattooed on the tail for permanent identification. Tumor volumes and body weights were determined twice weekly. The tumor volume was determined by measuring in two directions with vernier calipers and calculated using the formula: Tumor volume=(length×width^2)/2. The data were plotted as the % change in mean values of tumor volume and body weight for each group. […]. Tumor growth inhibition studies were dosed by oral gavage once a day for 14 days. Pharmacodynamic studies were dosed by oral gavage for 1-3 days with tumors from 4 control and 4 TARCEVA™ treated animals harvested and snap frozen in liquid nitrogen 4 hours after dosing on Days 1, 2 and 3.

[3] = test system: H292; assay: Cell-Titer Glo cell viability assay, H292; format: cell-based, human
Procedure: as §1, §2

[4] = test system: A549 xenograft; assay: NSCLC xenograft tumor growth inhibition, A549; format: in vivo, mouse; settings: oral gavage once a day for 14 days
Procedure: as §3

[5] = test system: Calu6; assay: Cell-Titer Glo cell viability assay, Calu6; format: cell-based, human; settings: for EC50: Homo sapiens
Procedure: as §1, §2

[6] = test system: H441 xenograft; assay: NSCLC xenograft tumor growth inhibition, H441; format: in vivo, mouse; settings: oral gavage once a day for 14 days
Procedure: as §3

[7] = test system: NSCLC cells; assay: anti-phosphotyrosine capture and LC-MS/MS (iTRAQ) after erlotinib exposure; format: cell-based, human
Procedure: Anti-phosphotyrosine immunoaffinity resins were prepared by covalent coupling to a solid support by standard methods. Freshly prepared immunoaffinity resins were used for each biological experiment to maximize binding and reduce carryover. Briefly, anti-phosphotyrosine antibodies were crosslinked to solid-support and non-covalently bound IgG removed by low pH elution. […] Proteins isolated by anti-phosphotyrosine affinity selection were measured by iTRAQ labeling of tryptic peptides as previously described (Ross et al, (2004) Mol Cell Proteomics 3(12) 1154-1169; Haley et al., 2004). Peptide masses and sequence information were determined by electrospray LC-MS/MS and database searching. Peptides with confidence levels of >=90% with scores of >=20 were considered, after which spectra were inspected manually. […]. Proteins were clustered by temporal log2 protein expression ratios using Euclidian hierarchical methods and self-organizing maps.
Proteins associated with survival signaling and epithelial-mesenchymal cell phenotypes were isolated and measured using multiple experimental approaches, including mass spectrometry. Individual protein abundance, or extent of phosphorylation on tyrosine residues, was compared between different NSCLC tumor lines. Mass spectrometry approaches additionally included cellular fractionation, phosphotyrosine protein-capture and phosphopeptide-capture using four NSCLC model cell lines. The NSCLC lines were chosen to reflect a range of sensitivities to pharmacological EGFR inhibition both in vitro and in xenografts. These NSCLC lines also span both epithelial and mesenchymal-like tumor phenotypes arising from EMT-like transitions occurring during tumor progression. Two MS quantitation approaches were pursued. First, between-cell comparisons were performed where membrane-particulate and cytosolic fractions were isolated and differences in protein abundance measured. In both cases the iTRAQ peptide labeling method was used to allow relative quantitation of proteins isolated under the different biological conditions. […]. Protein samples were proteolytically cleaved with trypsin, separately labeled with isobaric stable isotope mass labels (iTRAQ; Ross et al., 2005; Petti et al. 2005), combined and subjected to LC-MS/MS. Protein identification criteria conformed to the guidelines proposed by Bradshaw et al. (Bradshaw R. A., Burlingame A. L., Carr S., and Aebersold R. (2006) Mol Cell Proteomics 5:787-788).

[8] = test system: Calu6 xenograft; assay: NSCLC xenograft tumor growth inhibition, Calu6; format: in vivo, mouse; settings: oral gavage once a day for 14 days
Procedure: as §3

[9] = test system: H1703; assay: Cell-Titer Glo cell viability assay, H1703; format: cell-based, human; settings: for EC50: Homo sapiens
Procedure: as §1, §2

[10] = test system: H460; assay: Cell-Titer Glo cell viability assay, H460; format: cell-based, human; settings: for EC50: Homo sapiens
Procedure: as §1, §2

[11] = test system: A549; assay: Cell-Titer Glo cell viability assay, A549; format: cell-based, human
Procedure: as §1, §2

[12] = test system: SW1573; assay: Cell-Titer Glo cell viability assay, SW1573; format: cell-based, human
Procedure: as §1, §2

[13] = test system: H292 xenograft; assay: NSCLC xenograft tumor growth inhibition, H292; format: in vivo, mouse; settings: oral gavage once a day for 14 days
Procedure: as §3

[14] = test system: BxPC3; assay: growth inhibition of pancreatic cell line in vitro, BxPC3; format: cell-based
From the text: (§4) We next extended these studies to ask whether these observations would be applicable to other cancer cell types.

[15] = test system: MiaPaca2; assay: growth inhibition of pancreatic cell line in vitro, MiaPaca2; format: cell-based
From the text: as §4

[16] = test system: H460 xenograft; assay: NSCLC xenograft tumor growth inhibition, H460; format: in vivo, mouse; settings: oral gavage once a day for 14 days
Procedure: as §3

[17] = test system: H322; assay: Cell-Titer Glo cell viability assay, H322; format: cell-based, human
Procedure: as §1, §2

[18] = test system: H441; assay: Cell-Titer Glo cell viability assay, H441; format: cell-based, human
Procedure: as §1, §2

C#Cc1cccc(Nc2ncnc3cc(OCCOC)c(OCCOC)cc23)c1 [erlotinib, [6,7-bis(2-methoxyethoxy)-4-quinazolin-4-yl]-(3-ethynylphenyl)amine]
Max. Inhibition (%) [1]: 72% | Classification of sensitivity to erlotinib-mediated growth inhibition ([1]; H358, in vitro and in xenografts): Sensitive | EC50 ([1]; Homo sapiens, NCI-H358, 72 h, read-out: EC50 Half Maximal): 0.6 µM | % TGI Day 15 [2]: 25% | Max. Inhibition (%) [3]: 69% | Classification of sensitivity to erlotinib-mediated growth inhibition ([3]; H292, in vitro and in xenografts): Sensitive | EC50 ([3]; Homo sapiens, NCI-H292, 72 h, read-out: EC50 Half Maximal): 0.1 µM | % TGI Day 15 [4]: 49% | Max. Inhibition (%) [5]: 46% | Classification of sensitivity to erlotinib-mediated growth inhibition ([5]; Calu6, in vitro and in xenografts): relatively insensitive | EC50 ([5]; Calu-6, 72 h, read-out: EC50 Half Maximal): > 10 µM | EC50 ([5]; Calu-6, read-out: EC50, growth inhibition in vitro): > 10 µM | % TGI Day 15 [6]: 60% | phosphocapture of the p21-activated kinase PAK2 ([7]; H1703 cells, 1, 4 and 24 hours): stimulated at all time points | regulation of Actin-like protein-6A and β-actin ([7]; cells with an epithelial phenotype, within 1 hour of erlotinib exposure (1 μM)): upregulation | regulation of α- and γ-actins and vimentin phosphoproteins ([7]; mesenchymal-like NSCLC cells, within 1 hour of erlotinib exposure (1 μM)): Down regulation | phosphocapture of Rho-GEF7 ([7]; mesenchymal-like cells): significant erlotinib-dependent increase | tyrosine phosphorylation for Erk2, ubiquitin and the tyrosine phosphatases SHP-2 and BDP-18 ([7]; primarily associated with an epithelial cell state): downregulation | % TGI Day 15 [8]: 0% | Max. Inhibition (%) [9]: 30% | Classification of sensitivity to erlotinib-mediated growth inhibition ([9]; H1703): relatively insensitive | EC50 ([9]; NCI-H1703, 72 h, read-out: EC50 Half Maximal): 7 µM | EC50 ([9]; NCI-H1703, read-out: EC50, growth inhibition in vitro): > 10 µM | Max. Inhibition (%) [10]: 30% | Classification of sensitivity to erlotinib-mediated growth inhibition ([10]; H460, in vitro and in xenografts): relatively insensitive | EC50 ([10]; NCI-H460, 72 h, read-out: EC50 Half Maximal): 5 µM | EC50 ([10]; NCI-H460, read-out: EC50, growth inhibition in vitro): > 10 µM | Max. Inhibition (%) [11]: 30% | Classification of sensitivity to erlotinib-mediated growth inhibition ([11]; A549, in vitro and in xenografts): intermediate sensitivity | EC50 ([11]; Homo sapiens, A549, 72 h, read-out: EC50 Half Maximal): 5 µM | Max. Inhibition (%) [12]: 25% | EC50 ([12]; Homo sapiens, SW1573, 72 h, read-out: EC50 Half Maximal): 9 µM | Classification of sensitivity to erlotinib-mediated growth inhibition ([12]; SW1573): relatively insensitive | % TGI Day 15 [13]: 85% | sensitivity to growth inhibition by erlotinib [14]: sensitive | sensitivity to growth inhibition by erlotinib [15]: relatively insensitive | % TGI Day 15 [16]: 6% | Max. Inhibition (%) [17]: 80% | Classification of sensitivity to erlotinib-mediated growth inhibition ([17]; H322): Sensitive | EC50 ([17]; Homo sapiens, NCI-H322, 72 h, read-out: EC50 Half Maximal): 0.4 µM | Max. Inhibition (%) [18]: 55% | Classification of sensitivity to erlotinib-mediated growth inhibition ([18]; H441, in vitro and in xenografts): Sensitive; also recorded: intermediate | EC50 ([18]; Homo sapiens, NCI-H441, 72 h, read-out: EC50 Half Maximal): 2 µM
